{
  "source": "patent US7271158B2",
  "about": "“Treatment of rumen acidosis with α-amylase inhibitors” (Pfizer Inc., priority 2000, dated 2007)",
  "key": {"E. faecalis": {"system": "E. faecalis", "experiment": "Minimum inhibitory concentrations in aerobes (agar dilution)"}, "[1]": {"system": "lactating cows in which chronic acidosis had been induced", "experiment": "Efficacy of acarbose in lactating dairy cattle (induced chronic acidosis)", "format": "in vivo, Holstein/Friesian cows", "from_the_text": "Efficacy of Acarbose in Lactating Dairy Cattle The study measured the effect of acarbose on rumen pH, milk yield and milk composition in lactating cows in which chronic acidosis had been induced by offering a highly fermentable diet. The study included measurement of rate of adaptation to the introduction and removal of acarbose. Experimental animals were six lactating multiparous Holstein/Friesian cows between 5 and 11 years of age and 500-750 kg, with permanent rumen cannulas. The animals started the experiment in early lactation, but not before peak lactation, to allow greater experimental sensitivity. The principal measurements in this study were pH in the ventral sac of the rumen, milk yield and milk composition. DESIGN: Animals enrolled into the study received test article for 21 consecutive days from the start time points described below. [table] Masking/Bias-Reducing Methods: Six lactating multiparous Holstein/Friesian cows were enrolled on to the study on Day-1. Animals were paired based on their calving date (cows with similar dates paired together). Within each pair, one animal received […] and the other […]. The treatment was assigned at random. […] The mean intake over the last 5 days of the preliminary period was calculated and this mean amount was offered to each animal throughout the trial. […] Fresh weight of TMR offered and refused was recorded daily for each animal. During non-measurement weeks ([…] period and adaptation weeks 1 and 2 in each experimental period), dry matter (DM) of main forage components (grass and maize […] determined approximately weekly (or more frequently if it appears necessary from visual assessment of the silage). For measurement weeks (i.e. week 3 in each experimental period), the DM of the TMR were measured daily for the last 5 days while a bulk of each of the individual TMR components (grass silage, maize silage, concentrate mix, ground wheat) were prepared from the same 5 days for subsequent diet analysis (i.e. one sample of each main feed per period). […]"}, "strained rumen liquor": {"system": "strained rumen liquor", "experiment": "In vitro rumen propionic acid screen", "format": "cell-based, Guernsey cow", "settings": "control normalised as 100%; for Total VFA: 6 h incubation; for % Propionate: molar proportion of propionic acid in total VFA", "protocol": "In Vitro Rumen Propionic Acid Screen Rumen Fluid: An eight year old dry Guernsey cow, fitted with a rumen fistula (Bar Diamond Inc. P.O. Box. 60. Bar Diamond Lane. Parma. Id. 83660-0060. […] This animal was used as a source of rumen contents, which were taken at 08:00 h (before the morning feed). The material was carried to the laboratory in a pre-warmed insulated flask, and then strained through four layers of cotton gauze into another pre-warmed bottle, which was stored in an incubator at 40° C. until the fluid was dispensed into the assay tubes. Substrate Mixture: • 68 g corn starch. Ex Sigma Cat. S-4126. • 17 g α-cellulose. Ex Sigma Cat. C-6429. • 15 g Type 1 soya flour. Ex Sigma Cat. S-9633. • Mix well. The assay was conducted in 16 ml Sorvall centrifuge tubes A tablet containing 100 mg of acarbose was placed in 10 ml of buffer and shaken until the tablet was completely disrupted, giving a 10 mg/ml solution of acarbose. […] Control tubes were prepared by replacing the acarbose solution with buffer. One ml of substrate suspension was added to all the assay tubes, followed by 3 ml of warmed degassed buffer and then by 5 ml of strained rumen liquor. Suba-Seal stoppers (No. 29) were fitted, and the head pressure in the tubes reduced by passing a hypodermic needle attached to a vacuum line through the stopper until the tube contents frothed. The tubes were then placed in a 40° C. incubator for 6 hours and shaken hourly. Pre-incubation VFA concentration were determined by preparing three tubes as for incubation but 1 ml metaphosphoric/crotonic acids solution was added immediately following the rumen liquor. These tubes were stored at 4° C. and processed with the post-incubation tubes. The incubation was terminated after 6 h by removing the stoppers and adding 1 ml of metaphosphoric/crotonic acids solution. The tubes were then centrifuged for 8 minutes at 18,000 g at 4° C., and an aliquot of the supernatant stored in an automatic liquid sampler vial until required for VFA analysis by gas chromatography. (as described in […] protocol) Production of total VFA and propionate during the incubation was determined as follows. Firstly, first the pre-incubation concentrations of total VFA and propionic acid were calculated as the mean of the analyses of the pre-incubation samples. Then for each incubated sample, post-minus pre-incubation concentration gave production during incubation. The molar proportion of propionic acid in total VFA.produced during the incubation was also calculated. The total VFA and % propionic acid values were meaned for the replicate tubes, and the mean control total VFA and % propionic acid values normalised as 100%, then the change caused by the test treatments expressed relative to this value."}},
  "data": [
    {"smiles": "CC1OC(OC2C(CO)OC(OC3C(CO)OC(O)C(O)C3O)C(O)C2O)C(O)C(O)C1NC1C=C(CO)C(O)C(O)C1O", "note": "(stereo not shown) [Acarbose, acarbose]", "values": [
      {"measurement": "MIC", "setting": "E. faecalis; E. faecalis 1.1.16", "result": ">128", "unit": "µg/mL"},
      {"measurement": "MIC", "setting": "E. faecalis; E. faecalis 1.1.4", "result": ">128", "unit": "µg/mL"},
      {"measurement": "MIC", "setting": "E. faecalis; E. faecalis 1.10.4", "result": ">128", "unit": "µg/mL"},
      {"measurement": "MIC", "setting": "E. faecalis; E. faecalis 1.3.13", "result": ">128", "unit": "µg/mL"},
      {"measurement": "MIC", "setting": "E. faecalis; E. faecalis 1.4.12", "result": ">128", "unit": "µg/mL"},
      {"measurement": "MIC", "setting": "E. faecalis; E. faecalis 1.6.6", "result": ">128", "unit": "µg/mL"},
      {"measurement": "MIC", "setting": "E. faecalis; E. faecalis 1.9.5", "result": ">128", "unit": "µg/mL"},
      {"measurement": "MIC", "setting": "E. faecalis; E. faecalis 28.5.7", "result": ">128", "unit": "µg/mL"},
      {"measurement": "MIC", "setting": "E. faecalis; E. faecalis 28.6.9", "result": ">128", "unit": "µg/mL"},
      {"measurement": "MIC", "setting": "E. faecalis; Enterococcus faecalis", "result": "> 128", "unit": "µg/mL"},
      {"measurement": "proportion of fat in the milk", "setting": "[1]; treated animals, acarbose 15 g per day (control 32.8 g/L)", "result": 46.1, "unit": "g/L"},
      {"measurement": "milk fat", "setting": "[1]; treated animals, acarbose 15 g per day (control average 1033 grams per day)", "result": 1281, "unit": "grams per day"},
      {"measurement": "average time below pH 5.5 (rumen)", "setting": "[1]; treatment periods, acarbose 15 g per day in feed supplement (control periods 4.3 hours)", "result": 3.4, "unit": "hours"},
      {"measurement": "Total VFA", "setting": "strained rumen liquor; dose 0.32 μg/ml", "result": 96, "unit": "%"},
      {"measurement": "% Propionate", "setting": "strained rumen liquor; dose 0.32 μg/ml", "result": 97, "unit": "%"},
      {"measurement": "Total VFA", "setting": "strained rumen liquor; dose 1.6 μg/ml", "result": 92, "unit": "%"},
      {"measurement": "% Propionate", "setting": "strained rumen liquor; dose 1.6 μg/ml", "result": 94, "unit": "%"},
      {"measurement": "Total VFA", "setting": "strained rumen liquor; dose 8 μg/ml", "result": 72, "unit": "%"},
      {"measurement": "% Propionate", "setting": "strained rumen liquor; dose 8 μg/ml", "result": 74, "unit": "%"},
      {"measurement": "Total VFA", "setting": "strained rumen liquor; dose 40 μg/ml", "result": 63, "unit": "%"},
      {"measurement": "% Propionate", "setting": "strained rumen liquor; dose 40 μg/ml", "result": 74, "unit": "%"},
      {"measurement": "Total VFA", "setting": "strained rumen liquor; dose 200 μg/ml", "result": 58, "unit": "%"},
      {"measurement": "% Propionate", "setting": "strained rumen liquor; dose 200 μg/ml", "result": 81, "unit": "%"},
      {"measurement": "Total VFA", "setting": "strained rumen liquor; dose 1000 μg/ml", "result": 50, "unit": "%"},
      {"measurement": "% Propionate", "setting": "strained rumen liquor; dose 1000 μg/ml", "result": 88, "unit": "%"}
    ]}
  ]
}
